Entries after “also recorded” stand apart in the source; their conditions may differ.
Columns and labels:
Type in all cases: cell-based, human
HaCaT cells [1] = assay: CyQUANT assay, cell proliferation; details: after 48 h and 72 h of cultivation, versus control without DMG
Experimental: (§1) 1. As part of an in-vitro study, the effect of Na-dimethylglycinate was investigated in a cell culture model with human horn-forming keratinocyte cells. For this purpose, HaCaT cells were cultured for 1, 3, 5, and 7 days in DMEM medium (including fetal calf serum and an antibiotic-antimycotic mix) and, among other things, the viability, proliferation and migration of the cells were determined using suitable measuring methods, as well as the expression of the growth factors relevant for cell growth.
To measure proliferation, a so-called CyQUANT assay was performed. In this fluorescence-based assay, the fluorescent dye used binds to DNA (deoxyribonucleic acid), whereby the content of cellular DNA is a direct measure of the number of cells within a sample. Human epidermal keratinocyte cells (HaCaT) were seeded in a 96-well plate at a cell density of 5,000 cells/well and cultured in medium (DMEM with 10% FBS, 1% penicillin-streptomycin, 0.5% Fungizone). The next day and after a further 24 h, 48 h and 72 h of cultivation at 37° C. and 5 vol. % CO2, the cell culture medium was changed without (control) or with the active ingredient concentrations already contained. […]
Cell proliferation was determined using the CyQUANT assay. Fluorescence was measured using triple determination each time and standardized to the control at 24 h. […]

VEGF = VEGF gene expression by qRT-PCR in HaCaT cells; details: after 24 h of cultivation, standardized to GAPDH, versus control
Experimental: VEGF (vascular endothelial growth factor) promotes the growth and formation of new blood and lymph vessels. Gene expression was measured using a standard method of quantitative real-time PCR (qRT-PCR).
Human epidermal keratinocyte cells (HaCaT) were seeded in a 6-well plate at a cell density of 140,000 cells/well and cultured in medium (DMEM with 10% FBS, 1% penicillin-streptomycin, 0.5% Fungizone) at 37° C. and 5 vol. % CO2. The next day, the cell culture medium was changed without (control) and with the active ingredient concentrations already contained and the cells were harvested after 24 h. Gene expression was measured using qRT-PCR based on previously published studies in B. V. Diaz, M.-C. Lenoir, A. Ladoux, C. Frelin, M. Demarchez, S. Michel, Journal of Biological Chemistry 2000, 275, 642-650.
Shown is the relative gene expression of VEGF determined by qRT-PCR (triple determination, standardized to the corresponding gene expression of a constitutively expressed gene; GAPDH-glyceraldehyde-3-phosphate dehydrogenase). The mean value with standard deviation is given.

HaCaT cells [2] = assay: MTT assay, cell viability; details: after 48 h and 72 h of cultivation, versus control without DMG
Experimental: as §1
For this measurement, a so-called MTT assay was used to determine cellular metabolic activity as an indicator of cell viability and cytotoxicity. This colorimetric assay is based on the reduction of a yellow tetrazolium salt (3-(4,5-dimethylthiazol-2-yl)-2,5-diphenyltetrazolium bromide or MTT) to violet formazan crystals by metabolically active cells.
Human epidermal keratinocyte cells (HaCaT) were seeded in a 96-well plate at a cell density of 5,000 cells/well and cultured in medium (DMEM with 10% FBS, 1% penicillin-streptomycin, 0.5% Fungizone). […]
Cell viability was determined using MTT assay. The absorbance was measured using quadruple determination and standardized to the control at 24 h. […]

HaCaT cells [3] = assay: wound healing assay, cell migration; details: different DMG concentrations, 16 h, 20 h, 24 h, compared to the control without DMG
Experimental: as §1
To measure migration, a so-called wound healing assay was performed, based on previously published studies in T. Kawabata, T. Otsuka, K. Fujita, G. Sakai, R. Matsushima-Nishiwaki, O. Kozawa, H. Tokuda, International journal of molecular medicine 2018, 42, 3,149-3,156. The principle is based on measuring the migration of cells over time on a cultivation surface yet to be colonized. […]
At time 0 h, the wound was created and images were taken after 16 h, 20 h, and 24 h of cultivation. Based on the images, the cultivation surface, which had not yet been populated by cells, was determined using the ImageJ software. The measured values are standardized to the time point 0 h (maximum size of the wound) and given in %.

For CN(C)CC(=O)[O-].[Na+] [DMG, sodium dimethylglycinate], the “cell proliferation (CyQUANT assay)” value (HaCaT cells [1]) was “significant increase”, the “relative gene expression of VEGF” value (VEGF) was “significant increase; also recorded: significantly increased” and the “cell viability (MTT assay)” value (HaCaT cells [2]) was “significant increase”. The “migration and wound closure” value (HaCaT cells [3]) was “significantly faster”.
